Measurements as given in paper PMC8119466, “A screen of FDA-approved drugs identifies inhibitors of protein tyrosine phosphatase 4A3 (PTP4A3 or PRL-3)” (Scientific Reports, 2021).
Structures can show the parent of a compound that is named as a salt.

How the values were obtained:
Type in all cases: biochemical
Details in all cases: FDA-approved drug screen; compared to DMSO
[1] = molecular target: T1, recombinant PRL-1 (Homo sapiens, UniProt Q93096); test: In vitro phosphatase assay (DiFMUP hydrolysis), PRL-1; note: test concentration or dose not given here
T1 construct: 6xHis (N, cleaved yes); made in house; host or cells: E. coli One Shot BL21 Star
T1 sequence (Q93096 1-173): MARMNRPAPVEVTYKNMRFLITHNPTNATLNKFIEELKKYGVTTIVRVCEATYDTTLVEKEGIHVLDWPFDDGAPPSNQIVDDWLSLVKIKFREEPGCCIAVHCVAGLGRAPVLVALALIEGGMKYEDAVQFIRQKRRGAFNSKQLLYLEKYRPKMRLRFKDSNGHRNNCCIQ

[2] = molecular target: T2, recombinant PRL-3 (Homo sapiens, UniProt O75365); test: In vitro phosphatase assay (DiFMUP hydrolysis), PRL-3; note: test concentration or dose not given here
T2 construct: 6xHis (N, cleaved yes); made in house; host or cells: E. coli One Shot BL21 Star

[3] = molecular target: T3, recombinant PRL-2 (Homo sapiens, UniProt Q12974); test: In vitro phosphatase assay (DiFMUP hydrolysis), PRL-2;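 note: PRL-2 activity read as DiFMUP hydrolysis after 20 min at room temperature with drug, enzyme first pre-reduced at 4 °C for 20 min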
T3 construct: 6xHis (N, cleaved yes); made in house; host or cells: E. coli One Shot BL21 Star
T3 sequence (Q12974 1-167): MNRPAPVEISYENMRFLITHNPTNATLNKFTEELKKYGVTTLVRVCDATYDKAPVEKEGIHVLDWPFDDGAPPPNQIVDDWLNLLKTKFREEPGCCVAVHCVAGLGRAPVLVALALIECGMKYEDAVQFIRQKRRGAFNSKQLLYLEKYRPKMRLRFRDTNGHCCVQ

T2 sequence (O75365 whole entry): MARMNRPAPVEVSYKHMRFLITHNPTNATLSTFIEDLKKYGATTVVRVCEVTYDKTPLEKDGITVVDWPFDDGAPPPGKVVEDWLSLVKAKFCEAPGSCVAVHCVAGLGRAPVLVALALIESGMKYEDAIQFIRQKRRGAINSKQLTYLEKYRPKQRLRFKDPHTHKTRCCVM

Row | Structure (SMILES) | % Phosphatase Activity (compared to DMSO) PRL-1 [1] [%] | % Phosphatase Activity (compared to DMSO) PRL-3 [2] [%] | % Phosphatase Activity (compared to DMSO) PRL-2 [3] [%]
1 | C#Cc1cccc(Nc2ncnc3cc(OC)c(OCCCCCCC(=O)NO)cc23)c1 [CUDC-101] | 94 | 79 | 87
2 | O=C(O)c1ccc2c(c1)nc(Nc1cccc(Cl)c1)c1ccncc12 [CX-4945 (Silmitasertib)] | 85 | 86 | 81
3 | CO[C@H]1C(=O)[C@]2(C)[C@@H](OC)C[C@H]3OC[C@@]3(OC(C)=O)[C@H]2[C@H](OC(=O)c2ccccc2)[C@]2(O)C[C@H](OC(=O)[C@H](O)[C@@H](NC(=O)OC(C)(C)C)c3ccccc3)C(C)=C1C2(C)C [Cabazitaxel] | 88 | 89 | 107
4 | O=C([O-])C(O)[C@H](O)[C@@H](O)[C@H](O)[C@H](O)CO.O=C([O-])C(O)[C@H](O)[C@@H](O)[C@H](O)[C@H](O)CO.[Ca+2] (stereo partly drawn) [Calcium Gluceptate] | 114 | 107 | 104
5 | Nc1nc(=O)c2c([nH]1)NC[C@H](CNc1ccc(C(=O)N[C@@H](CCC(=O)[O-])C(=O)[O-])cc1)N2C=O.[Ca+2] [Calcium Levofolinate] | 96 | 105 | 101
6 | CN(C)C(=O)COC(=O)Cc1ccc(OC(=O)c2ccc(NC(=N)N)cc2)cc1 [Camostat Mesilate] | 98 | 94 | 138
7 | CCCCCOC(=O)Nc1nc(=O)n([C@@H]2O[C@H](C)[C@@H](O)[C@H]2O)cc1F [Capecitabine] | 108 | 97 | 123
8 | C[C@H](CS)C(=O)N1CCC[C@H]1C(=O)O [Captopril] | 90 | 82 | 99
9 | C[N+](C)(C)CCOC(N)=O [Carbachol] | 91 | 82 | 100
10 | COC(=O)N/N=C/c1c[n+]([O-])c2ccccc2[n+]1[O-] [Carbadox] | 96 | 99 | 103
11 | NC(=O)N1c2ccccc2C=Cc2ccccc21 [Carbamazepine] | 98 | 80 | 112
12 | CC1(C)[C@@H](OC(=O)CCC(=O)O)CC[C@]2(C)[C@H]3C(=O)C=C4[C@@H]5C[C@@](C)(C(=O)O)CC[C@]5(C)CC[C@@]4(C)[C@]3(C)CC[C@@H]12 [Carbenoxolone Sodium] | 85 | 84 | 73
13 | C[C@@](Cc1ccc(O)c(O)c1)(NN)C(=O)O [Carbidopa] | 68 | 94 | 92
14 | CCOC(=O)n1ccn(C)c1=S [Carbimazole] | 103 | 78 | 114
15 | N.N.O=C([O-])C1(C(=O)[O-])CCC1.[Pt+2] [Carboplatin] | 90 | 85 | 79
16 | CC(C)C[C@H](NC(=O)[C@H](CCc1ccccc1)NC(=O)CN1CCOCC1)C(=O)N[C@@H](Cc1ccccc1)C(=O)N[C@@H](CC(C)C)C(=O)[C@@]1(C)CO1 [Carfilzomib (PR-171)] | 97 | 94 | 88
17 | CCCCCCNC(=O)n1cc(F)c(=O)[nH]c1=O [Carmofur] | 89 | 73 | 95
18 | CC(C(=O)O)c1ccc2c(c1)[nH]c1ccc(Cl)cc12 (stereo not drawn) [Carprofen] | 95 | 71 | 94
19 | O=c1[nH]c(=O)c2ccccc2o1 [Carsalam] | 96 | 80 | 95
20 | CC(C)(C)NCC(O)COc1cccc2c1CCC(=O)N2 (stereo not drawn) [Carteolol HCl] | 100 | 71 | 87
21 | COc1ccccc1OCCNCC(O)COc1cccc2[nH]c3ccccc3c12 (stereo not drawn) [Carvedilol] | 97 | 111 | 128
22 | NS(=O)(=O)c1ccc(C(=O)O)cc1 [Carzenide] | 105 | 89 | 98
23 | CC(=O)O.CC(=O)O.CC[C@H](C)C[C@H](C)CCCCCCCCC(=O)N[C@H]1C[C@@H](O)[C@@H](NCCN)NC(=O)[C@@H]2[C@@H](O)CCN2C(=O)[C@H]([C@H](O)CCN)NC(=O)[C@H]([C@H](O)[C@@H](O)c2ccc(O)cc2)NC(=O)[C@@H]2C[C@@H](O)CN2C(=O)[C@H]([C@@H](C)O)NC1=O [Caspofungin Acetate] | 106 | 109 | 113
24 | COc1cc2c(Oc3ccc4[nH]c(C)cc4c3F)ncnc2cc1OCCCN1CCCC1 [Cediranib (AZD2171)] | 100 | 90 | 105
25 | Cc1nnc(SCC2=C(C(=O)O)N3C(=O)[C@@H](NC(=O)Cn4cnnn4)[C@H]3SC2)s1 [Cefazolin Sodium] | 97 | 88 | 110
26 | C=CC1=C(C(=O)O)N2C(=O)[C@@H](NC(=O)/C(=N\O)c3csc(N)n3)[C@H]2SC1 [Cefdinir] | 109 | 88 | 110
27 | CO/N=C(\C(=O)N[C@@H]1C(=O)N2C(C(=O)OCOC(=O)C(C)(C)C)=C(/C=C\c3scnc3C)CS[C@H]12)c1csc(N)n1 [Cefditoren Pivoxil] | 88 | 113 | 94
28 | C=CC1=C(C(=O)O)N2C(=O)[C@@H](NC(=O)/C(=N\OCC(=O)O)c3csc(N)n3)[C@H]2SC1 [Cefixime] | 89 | 90 | 90
